No end group written: not given here.
Columns and labels:
[1] = rat, in vivo
SH-SY5Y cells = assay: Intracellular penetration of rhodamine-pentapeptide conjugate (fluorescence microscopy); assay type: cell-based; details: rhodamine-peptide conjugate, 4 hours
Procedure: In order to confirm that the pentapeptide of the present invention penetrates into the nerve cells, SH-SY5Y cells were seeded in a 6-well plate at a density of 3×10^5 cells/well and cultured in a 37° C., 5% CO2 incubator for 24 hours, and then the medium was replaced with serum-free medium. After treatment with the rhodamine-peptide conjugate for 4 hours at each concentration, cells were fixed by treatment with 4% paraformaldehyde, and nuclei were stained using a DAPI staining kit (Invitrogen, USA). Intracellular peptide penetration was observed using a fluorescence microscope. Blue represents the nuclei of cells stained with DAPI, and red represents the ‘rhodamine-pentapeptide’ conjugate.

SNARE complex = SNARE complex (Homo sapiens, UniProt Q16623); assay: Inhibition of SNARE complex formation in nerve cells (Western blot, syntaxin 1a antibody); assay type: cell-based
SNARE complex, sequence (Q16623 whole entry, one chain of several): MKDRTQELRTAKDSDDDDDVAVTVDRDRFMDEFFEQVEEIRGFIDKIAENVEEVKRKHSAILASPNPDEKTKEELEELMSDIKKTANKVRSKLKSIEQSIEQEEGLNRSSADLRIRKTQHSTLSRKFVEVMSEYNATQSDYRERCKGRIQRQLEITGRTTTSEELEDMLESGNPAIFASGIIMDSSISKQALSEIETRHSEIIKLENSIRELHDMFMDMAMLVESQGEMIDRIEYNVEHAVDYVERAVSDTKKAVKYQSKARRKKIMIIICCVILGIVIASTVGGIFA

**Q.** Which “penetration into skin tissue” value [1] does the source give for KFLIK [pentapeptide, KFLIK] here?
**A.** penetrated into the muscle layer of the skin tissue and co-localized with the nerve cell marker

**Q.** What about the “penetration into nerve cells” value (SH-SY5Y cells) of the same substance?
**A.** penetrated into nerve cells

**Q.** Which SNARE complex formation (SNARE complex) does the source give for botulinum toxin here?
**A.** inhibited
